Like-named read-outs stand apart in the source and are kept apart here.
How the values were obtained:
[1] = system: cortical infarct volumes; settings: cited from earlier work
[2] = system: global ischemia; settings: rat common carotid arteries model; cited from earlier work
[3] = system: AMPA receptor; assay: AMPA receptor inhibition, whole-cell patch clamp, KA-stimulated currents in primary cultures of rat neocortex; format: cell-based; settings: rat cortical neurons; for AMPA % INHIBITION (10 μM drug): KA 50 μM; for IC50: 5 doses
Protocol: The potency of Examples 1-5, 7, 11, 17 and 31 listed in Table 1, for drug inhibition of the AMPA receptor was tested using the whole-cell patch clamp technique on primary cultures of rat neocortex. The general procedure for stimulating AMPA-receptor mediated currents with KA and for the measurement of current inhibition is based on that used by Donevan and Rogawski (Neuron, 10:51-59, 1993) for 2,3-benzodiazepines.
Standard extracellular bath solutions and intracellular pipette solutions are used as described in detail by Hussy and coworkers (J. Physiol. (Lond.), 481.2:311-323,1994). The drug application system is designed to allow rapid switching between 7 different reservoirs containing either control bath solution, kainic acid (50 μM), or kainic acid (50 μM) plus antagonist (10 μM). Each recording is begun with a control response to KA alone.
Following the establishment of a 2-3 sec duration steady baseline, bathing solution is switched to one containing KA plus antagonist for an additional 2-3 sec period. Alternatively, 5 different doses of a single compound are tested for the determination of the antagonist IC50. The results of the assay of Examples 1-5, 7, 11, 17 and 31 are listed below in Table 3, which illustrates AMPA receptor inhibition in rat cortical neurons. The compounds tested all were useful as antagonists of non-NMDA EAA receptors.

[4] = system: Male NIH Swiss mice; assay: Maximum Electro Shock (MES) Seizure Test; format: in vivo; settings: ip, 0.5 hours
Protocol: The extent of protection by a test compound in a seizure model is tested as described by Rogawski et al. (Epilepsy Research, 15:179-184, 1993). Male NIH Swiss mice (25-30 g) are injected ip with the test drug. The mice are subjected to a 0.2 sec, 60 Hz, 50 mA electrical stimulus delivered with corneal electrodes wetted with 0.9% saline at 15-30 min post dosing. Animals failing to show tonic hind limb extension are scored as protected. Compounds may be selected which are active in this model.

[5] = system: Mice; assay: Subcutaneous Metrazol (scMET) Seizure Test; format: in vivo; settings: 30 mg/kg, 0.5 hr, metrazol 90 mg/kg sc
Protocol: This test is to determine the extent of protection by a test compound in a seizure model. The method used is that of Chen et at. (Proc. Soc. Exp. Biol. Med., 87:334, 1954). Mice are randomly assigned to vehicle or treatment groups of 3-10 animals per group and then dosed accordingly. Metrazol (pentylenetetrazol) 90 mg/kg is administered subcutaneously (sc) at different time points (0.25, 0.5, 1, 2, 4 hr) after the treatment or control groups. The mice individually housed in clear runs and observed for the presence or absence of clonic seizure activity (>5 s duration) for 30 min after metrazol dosing. A compound is considered active if no seizure is observed. Data is analyzed using a quantal measure (protection/number tested).

Row | IC50 [3] [µM] | Structure (SMILES) | AMPA % INHIBITION (10 μM drug) [3] [%] | further results
1 |  | CC1=NN=C(c2ccc(N)cc2)c2cc3c(cc2C1)OCO3 [GYKI 52466] |  | reduction of cortical infarct volumes ([1]; delayed for one hour): 48%; reduction of cortical infarct volumes ([1]; given continuously for 2 hours just after occlusion): 68%; effectiveness in global ischemia compared with NBQX [2]: as effective as the glutamate site competitive antagonist NBQX
2 |  | CC1c2cc3c(cc2C(c2ccc(N)cc2)=NN1C(=O)N(C)C)OCO3 (stereo not drawn) [Example 31, 4-(4-Aminophenyl)-1,2-dihydro-2-(N,N-dimethylcarbamoyl)-1-methyl-6,7-methylendioxyphthalazine] | 33 | 
3 | 2.8 | CCCNC(=O)N1N=C(c2ccc(N)cc2)c2cc3c(cc2C1C)OCO3 (stereo not drawn) [Example 3, 4-(4-Aminophenyl)-1,2-dihydro-1-methyl-2-propylcarbamoyl-6,7-methylendioxyphthalazine] | 80 | MES Score (protected/no. tested) ([4]; 31 mg/kg): 5/8
4 | 5.4 | CC1c2cc3c(cc2C(c2ccc(N)cc2)=NN1C(=O)NC(C)(C)C)OCO3 (stereo not drawn) [Example 7] | 70 | 
5 |  | CC(=O)N1N=C(c2ccc(N)cc2)c2cc3c(cc2C1C)OCO3 (stereo not drawn) [Example 17] | 20 | 
6 |  | CCC1c2cc3c(cc2C(c2ccc(N)cc2)=NN1C(=O)NC)OCO3 (stereo not drawn) [Example 11, 4-(4-Aminophenyl)-1,2-dihydro-1-ethyl-2-methylcarbamoyl-6,7-methylendioxyphthalazine] | 36 | 
7 | 23 | CNC(=O)N1N=C(c2ccc(N)cc2)c2cc3c(cc2C1C)OCO3 (stereo not drawn) [Example 1, 4-(4-Aminophenyl)-1,2-dihydro-1-methyl-2-(N"-methylcarbamoyl)-6,7-methylendioxyphthalazine] | 20 | 
8 | 7.2 | CCNC(=O)N1N=C(c2ccc(N)cc2)c2cc3c(cc2C1C)OCO3 (stereo not drawn) [Example 2, 4-(4-Aminophenyl)-1,2-dihydro-2-(N-ethylcarbamoyl)-1-methyl-6,7-methylendioxyphthalazine] | 55 | MES Score (protected/no. tested) ([4]; 30 mg/kg): 3/3
9 |  | CC(C)NC(=O)N1N=C(c2ccc(N)cc2)c2cc3c(cc2C1C)OCO3 (stereo not drawn) [Example 4, 4-(4-Aminophenyl)-1,2-dihydro-1-methyl-2-isopropylcarbamoyl-6,7-methylendioxyphthalazine] | 45 | 
10 |  | CCCNC(=O)N1N=C(c2ccc(N)cc2)c2cc(OC)c(OC)cc2C1C (stereo not drawn) [Example 133] |  | MES Score (protected/no. tested) ([4]; 30 mg/kg): 1/3; scMET Score (protect./no. tested) [5]: 1/5
11 | 1.8 | CCCCNC(=O)N1N=C(c2ccc(N)cc2)c2cc3c(cc2C1C)OCO3 (stereo not drawn) [Example 5, 4-(4-Aminophenyl)-1,2-dihydro-1-methyl-2-n-butylcarbamoyl-6,7-methylenedioxyphthalazine] | 86 | 

Source: patent US5716956A, “Dihydrophthalazine antagonists of excitatory amino acid receptors” (Bearsden Bearsden Bio, Inc., priority 1996, dated 1998)
